According to PubChem BioAssay AID2060513 (Molecular Pharmacology Branch, DTP, NCI, 2025):
Values belong to the molecule of their own block, whether it stands above or below them.

Test system: 299254-011-R-J1-PDC complex spheroids viability
Experiment: Anticancer human tumor 299254-011-R-J1-PDC patient-derived melanoma cell line growth inhibition [GQUAD]
Settings: for IC50: curve of first compound; for viability, T/C: stronger effect = lower value
In short: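 Tumor cells were grown as complex spheroids with HUVEC endothelial cells and mesenchymal stem cells as stroma. G-quadruplex stabilizers were combined with targeted agents over half-log dilutions from near the clinical Cmax, or from 10 microM.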

[1] = second compound 0.0316 µM, first compound 0.0316 µM
[2] = second compound 0.0316 µM, first compound 0.1 µM
[3] = second compound 0.0316 µM, first compound 0.316 µM
[4] = second compound 0.0316 µM, first compound 1 µM
[5] = second compound 0.0316 µM, first compound 3.16 µM
[6] = second compound 0.0316 µM, first compound 10 µM
[7] = second compound 0.1 µM, first compound 0.0316 µM
[8] = second compound 0.1 µM, first compound 0.1 µM
[9] = second compound 0.1 µM, first compound 0.316 µM
[10] = second compound 0.1 µM, first compound 1 µM
[11] = second compound 0.1 µM, first compound 3.16 µM
[12] = second compound 0.1 µM, first compound 10 µM
[13] = second compound 0.316 µM, first compound 0.0316 µM
[14] = second compound 0.316 µM, first compound 0.1 µM
[15] = second compound 0.316 µM, first compound 0.316 µM
[16] = second compound 0.316 µM, first compound 1 µM
[17] = second compound 0.316 µM, first compound 3.16 µM
[18] = second compound 0.316 µM, first compound 10 µM
[19] = second compound 1 µM, first compound 0.0316 µM
[20] = second compound 1 µM, first compound 0.1 µM
[21] = second compound 1 µM, first compound 0.316 µM
[22] = second compound 1 µM, first compound 1 µM
[23] = second compound 1 µM, first compound 3.16 µM
[24] = second compound 1 µM, first compound 10 µM
[25] = second compound 3.16 µM, first compound 0.0316 µM
[26] = second compound 3.16 µM, first compound 0.1 µM
[27] = second compound 3.16 µM, first compound 0.316 µM
[28] = second compound 3.16 µM, first compound 1 µM
[29] = second compound 3.16 µM, first compound 3.16 µM
[30] = second compound 3.16 µM, first compound 10 µM
[31] = second compound 10 µM, first compound 0.0316 µM
[32] = second compound 10 µM, first compound 0.1 µM
[33] = second compound 10 µM, first compound 0.316 µM
[34] = second compound 10 µM, first compound 1 µM
[35] = second compound 10 µM, first compound 3.16 µM
[36] = second compound 10 µM, first compound 10 µM
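Note: spheroids exposed to the agents for seven days before readout.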
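Throughout, for viability, T/C: percent viability relative to DMSO vehicle control wells = 100%.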

IC50 (second compound 0.0316 µM): > 10 µM | IC50 (second compound 0.1 µM): > 10 µM | IC50 (second compound 0.316 µM): > 10 µM | IC50 (second compound 1 µM): 4.52 µM | IC50 (second compound 3.16 µM): 1.96 µM | IC50 (second compound 10 µM): < 0.0316 µM
SMILES: CC(C)(O)C1CCC(Nc2ccc3ncc(-c4cccc(C(F)(F)F)c4)n3n2)CC1 (stereo unspecified) + Cc1cnc(CNC(=O)c2c(=O)c3ccc(N4CCCN(C)CC4)nc3n3c2sc2ccccc23)cn1
viability, T/C [1]: 98.5% | viability, T/C [2]: 114% | viability, T/C [3]: 97.5% | viability, T/C [4]: 90.7% | viability, T/C [5]: 54.5% | viability, T/C [6]: 100% | viability, T/C [7]: 89.3% | viability, T/C [8]: 101% | viability, T/C [9]: 113% | viability, T/C [10]: 98.6% | viability, T/C [11]: 63.7% | viability, T/C [12]: 110% | viability, T/C [13]: 90.1% | viability, T/C [14]: 100% | viability, T/C [15]: 88.4% | viability, T/C [16]: 98.2% | viability, T/C [17]: 60% | viability, T/C [18]: 84% | viability, T/C [19]: 81.7% | viability, T/C [20]: 112% | viability, T/C [21]: 96.7% | viability, T/C [22]: 74.7% | viability, T/C [23]: 55.8% | viability, T/C [24]: 42.3% | viability, T/C [25]: 76.7% | viability, T/C [26]: 85.9% | viability, T/C [27]: 86.4% | viability, T/C [28]: 76.8% | viability, T/C [29]: 24.1% | viability, T/C [30]: 37.6% | viability, T/C [31]: 45.7% | viability, T/C [32]: 18% | viability, T/C [33]: 17.3% | viability, T/C [34]: 0.33% | viability, T/C [35]: 0.29% | viability, T/C [36]: 0.26%

SMILES: COc1cccc2c1C(=O)c1c(O)c3c(c(O)c1C2=O)CC(O)(C(=O)CO)CC3OC1CC(N)C(O)C(C)O1 (stereo unspecified) + CN(C)c1ccc(Nc2c3ccc(NC(=O)CCN4CCCC4)cc3nc3cc(NC(=O)CCN4CCCC4)ccc23)cc1
IC50 (second compound 0.0316 µM): 4.26 µM | IC50 (second compound 0.1 µM): 5.65 µM | IC50 (second compound 0.316 µM): 5.03 µM | IC50 (second compound 1 µM): 4.9 µM | IC50 (second compound 3.16 µM): 5.46 µM | IC50 (second compound 10 µM): 6.44 µM | viability, T/C [1]: 109% | viability, T/C [2]: 103% | viability, T/C [3]: 90.5% | viability, T/C [4]: 72.5% | viability, T/C [5]: 61.9% | viability, T/C [6]: 28.8% | viability, T/C [7]: 93.1% | viability, T/C [8]: 106% | viability, T/C [9]: 94.6% | viability, T/C [10]: 79.8% | viability, T/C [11]: 71% | viability, T/C [12]: 31.5% | viability, T/C [13]: 112% | viability, T/C [14]: 110% | viability, T/C [15]: 81% | viability, T/C [16]: 87.1% | viability, T/C [17]: 64.8% | viability, T/C [18]: 30.7% | viability, T/C [19]: 99.7% | viability, T/C [20]: 96.3% | viability, T/C [21]: 90.1% | viability, T/C [22]: 89.5% | viability, T/C [23]: 63.4% | viability, T/C [24]: 27.3% | viability, T/C [25]: 109% | viability, T/C [26]: 107% | viability, T/C [27]: 83.7% | viability, T/C [28]: 92.4% | viability, T/C [29]: 72.4% | viability, T/C [30]: 27.3% | viability, T/C [31]: 91.8% | viability, T/C [32]: 110% | viability, T/C [33]: 87.6% | viability, T/C [34]: 99.6% | viability, T/C [35]: 75.9% | viability, T/C [36]: 34%

SMILES: Cn1ncnc1[C@H]1c2n[nH]c(=O)c3cc(F)cc(c23)N[C@@H]1c1ccc(F)cc1 + Cc1[nH]c2ccc(F)cc2c1-c1nc2c3cccnc3c3ncccc3c2[nH]1
IC50 (second compound 0.0316 µM): > 0.316 µM | IC50 (second compound 0.1 µM): > 0.316 µM | IC50 (second compound 0.316 µM): > 0.316 µM | IC50 (second compound 1 µM): > 0.316 µM | IC50 (second compound 3.16 µM): > 0.316 µM | IC50 (second compound 10 µM): > 0.316 µM | viability, T/C (second compound 0.0316 µM, first compound 0.000999 µM): 93.7% | viability, T/C (second compound 0.0316 µM, first compound 0.00316 µM): 105% | viability, T/C (second compound 0.0316 µM, first compound 0.00999 µM): 117% | viability, T/C [1]: 90.2% | viability, T/C (second compound 0.0316 µM, first compound 0.0999 µM): 88.3% | viability, T/C [3]: 101% | viability, T/C (second compound 0.1 µM, first compound 0.000999 µM): 101% | viability, T/C (second compound 0.1 µM, first compound 0.00316 µM): 103% | viability, T/C (second compound 0.1 µM, first compound 0.00999 µM): 88.1% | viability, T/C [7]: 92.7% | viability, T/C (second compound 0.1 µM, first compound 0.0999 µM): 118% | viability, T/C [9]: 96.2% | viability, T/C (second compound 0.316 µM, first compound 0.000999 µM): 92.8% | viability, T/C (second compound 0.316 µM, first compound 0.00316 µM): 108% | viability, T/C (second compound 0.316 µM, first compound 0.00999 µM): 113% | viability, T/C [13]: 94% | viability, T/C (second compound 0.316 µM, first compound 0.0999 µM): 98.2% | viability, T/C [15]: 105% | viability, T/C (second compound 1 µM, first compound 0.000999 µM): 86.7% | viability, T/C (second compound 1 µM, first compound 0.00316 µM): 105% | viability, T/C (second compound 1 µM, first compound 0.00999 µM): 87.1% | viability, T/C [19]: 112% | viability, T/C (second compound 1 µM, first compound 0.0999 µM): 112% | viability, T/C [21]: 102% | viability, T/C (second compound 3.16 µM, first compound 0.000999 µM): 95.3% | viability, T/C (second compound 3.16 µM, first compound 0.00316 µM): 88.2% | viability, T/C (second compound 3.16 µM, first compound 0.00999 µM): 96.3% | viability, T/C [25]: 84.6% | viability, T/C (second compound 3.16 µM, first compound 0.0999 µM): 88.6% | viability, T/C [27]: 118% | viability, T/C (second compound 10 µM, first compound 0.000999 µM): 96.7% | viability, T/C (second compound 10 µM, first compound 0.00316 µM): 111% | viability, T/C (second compound 10 µM, first compound 0.00999 µM): 84% | viability, T/C [31]: 95.7% | viability, T/C (second compound 10 µM, first compound 0.0999 µM): 108% | viability, T/C [33]: 99.5%
